TGI data for 14 molecules are collected here from PubChem BioAssay (NCI).

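Grown in 96-well plates, cells were treated for 48 hours with each compound at five concentrations. Insufficient inhibition: endpoint recorded as highest concentration tested. At the TGI there is no net growth.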

Common to all, as to assay: NCI tumour cell line growth inhibition, 48 h
Experiment [1] concerns IGROV1 ovarian.
The test system of experiment [2] is NCI-H226 lung.
The subject of experiment [3] is NCI-H460 lung.
The subject of experiment [4] is NCI/ADR-RES ovarian.
Experiment [5] relates to OVCAR-8 ovarian.
For experiment [6], the system named is SF-539 CNS.
The test system of experiment [7] is SW-620 colon.
Experiment [8] concerns T-47D breast.
Experiment [9] has as its system UACC-62 melanoma.
Experiment [10] relates to DLD-1 colon.
The test system of experiment [11] is DMS 273 small cell lung.
Experiment [12] deals with LXFL 529 NSCLC.
In experiment [13] the test system is SNB-78 CNS.

`COc1ccc(/C=C/C(=O)c2cc(C(C)(C)C)c(O)c(C(C)(C)C)c2)cc1OC`: the TGI is greater than 100 µM in [1]; 43 µM in [2]; 20.2 µM in experiment [3]; 49.7 µM in experiment [4]; greater than 100 µM in experiment [5]; 52.1 µM in [6]. The TGI in [7] was greater than 100 µM; in [8], 24.4 µM; in experiment [9], 40.1 µM.

Turning to `O=C(CCCCCC(=O)N1CC(CCl)c2ccc([N+](=O)[O-])cc21)N1CC(CCl)c2ccc([N+](=O)[O-])cc21` (stereo not given), the TGI in experiment [1], in experiment [2], in experiment [3], in experiment [4], in experiment [5] and in [6] was greater than 100 µM throughout. Besides, the TGI in experiment [7], in experiment [8] and in [9] was greater than 100 µM in each case.

On to `Cc1ccc(C(=O)N(Cc2ccccc2)Cc2ccccc2)cc1N=NN(C)C`, for which the TGI was greater than 100 µM in [10]; greater than 100 µM in experiment [11]; greater than 100 µM in experiment [1]; 72.4 µM in [12]; 56.2 µM in experiment [2]; greater than 100 µM in [3]. The TGI in experiment [4] was greater than 100 µM; in experiment [5] it was greater than 100 µM; in [6], 44.9 µM; in experiment [13], greater than 100 µM; in experiment [7] it was greater than 100 µM; in experiment [8] it was 75 µM. In experiment [9], this molecule gave a TGI greater than 31.6 µM.

Regarding `COc1ccc(/C=C2\CCS(=O)(=O)c3ccccc3C2=O)cc1OC`, the TGI in experiment [1] was 72.1 µM; in [2], greater than 100 µM; in [3] it was 47 µM; in [4] it was 81.6 µM; in experiment [5] it was 43.5 µM; in experiment [6], greater than 100 µM. The TGI is greater than 100 µM in [7], greater than 100 µM in experiment [8] and 76.6 µM in experiment [9].

For `CC1=NN(C(=O)CC(=O)Nc2ccccc2Cl)C(=O)C1N=Nc1ccc(S(=O)(=O)c2ccc(N=NC3C(=O)N(C(=O)CC(=O)Nc4ccccc4Cl)N=C3C)cc2)cc1` (stereo not given), the TGI in [1], in experiment [2], in experiment [3], in experiment [4], in experiment [5] and in experiment [6] was greater than 100 µM in each case. In addition, the TGI in experiment [7], in [8] and in experiment [9] was greater than 100 µM each time.

On to `CCOC(=O)c1sc2nc(SC)nc3c2c1NCN3c1ccc(F)c(F)c1`, for which the TGI in experiment [1] is greater than 100 µM; in experiment [2] it was greater than 79.9 µM; in [3], greater than 100 µM; in experiment [4], greater than 88.8 µM; in experiment [5], 29.4 µM; in experiment [6], 11.7 µM. For the same molecule, the TGI in [7], in experiment [8] and in [9] was greater than 100 µM throughout.

With `C=CC(OC(C)=O)c1ccc(OC(=O)C(C)C)c(OC)c1` (stereo not given), the TGI in experiment [1] was 28.7 µM; in experiment [2] it was 39.8 µM; in [3], greater than 57.6 µM; in [4], 60.8 µM; in [5], 11.1 µM; in [6], 22.6 µM. The TGI is 7.69 µM in experiment [7], 21.9 µM in experiment [8] and 31.5 µM in experiment [9].

`COC(=O)C1=C(OC(=O)/C=C/c2ccccc2)C(C(=O)OC)[C@@]2(O)[C@@H](C(=O)OC)[C@H](C)C[C@@H]1[C@@H]2C(=O)OC` (stereo not given in full): the TGI was 63.3 µM in experiment [1]; greater than 100 µM in experiment [2]; 52.7 µM in [3]; 41.5 µM in experiment [4]; 46.2 µM in experiment [5]; 52.6 µM in [6]. Moreover, the figures for the TGI in experiment [7], in [8] and in experiment [9] were greater than 100 µM, 84.4 µM and 33.1 µM, respectively.

On to `CC(=O)OC(Cc1ccc2ccccc2n1)(C(F)(F)F)C(F)(F)F`, for which the TGI in experiment [1] was 6.02 µM; in experiment [2] it was 4.77 µM; in [3], 18.5 µM; in experiment [4], greater than 19.6 µM; in [5], 3.96 µM; in experiment [6], 7.71 µM. Besides, the TGI in [7] is 12 µM; in experiment [8], 0.912 µM; in experiment [9], 2.93 µM.

With `C(=N\Nc1ccc(-c2nc3ccccc3[nH]2)cc1)/c1c(-c2ccc(Cc3ccccc3)cc2)[nH]c2ccccc12`, the TGI in [1] was 19 µM; in [2], greater than 100 µM; in experiment [3] it was greater than 100 µM; in experiment [4], 52.8 µM; in experiment [5], greater than 54.7 µM; in experiment [6] it was 44.6 µM. Further, the TGI was greater than 100 µM in experiment [7], 98.4 µM in experiment [8] and greater than 54.3 µM in experiment [9].

As for `O=c1c2c3c(sc2nc2n1N=C(c1ccc(Cl)cc1)CS2)CCCC3`, the TGI in experiment [1], in experiment [2], in experiment [3], in experiment [4], in experiment [5] and in experiment [6] was greater than 100 µM in each case. Moreover, the TGI in [7], in experiment [8] and in experiment [9] was greater than 100 µM in each case.

With `CC(=O)OCc1cncn1S(=O)(=O)c1ccc(C)cc1`, the TGI in experiment [1] is greater than 100 µM; in experiment [2] it was greater than 100 µM; in experiment [3], greater than 65.5 µM; in [4] it was greater than 100 µM; in experiment [5], greater than 100 µM; in [6] it was greater than 100 µM. For the same molecule, the TGI in experiment [7], in [8] and in experiment [9] was greater than 100 µM each time.

Regarding `C(/Cc1ccc2c(c1)OCO2)=N\NC1=NCCN1`, the TGI in experiment [1], in [2], in [3], in [4], in experiment [5] and in experiment [6] was greater than 100 µM in each case. Further, the TGI in [7], in experiment [8] and in experiment [9] was greater than 100 µM throughout.

Take `COC(OC)C1OCC(n2cc(F)c(=O)[nH]c2=O)C1O` (stereo not given): the TGI in experiment [1], in experiment [2], in experiment [3], in experiment [4], in experiment [5] and in experiment [6] was greater than 100 µM in each case. Moreover, the TGI in [7], in experiment [8] and in [9] was greater than 100 µM throughout.
